Reference: article PMC7069776 (Journal of medicinal chemistry, 2019)

Tests used:
[1] = system: C. albicans clinical isolate (CaCi2); test: Antifungal sensitivity testing; type: cell-based; conditions: CaCi2, cultures spotted on compound-free YPD agar, 30 °C, 24 h
Hsp90 = Hsp90 (Candida albicans, UniProt P46598); test: biochemical
C. albicans Hsp90 NBD = conditions: cited from earlier work
[2] = system: C. neoformans (Strain H99); conditions: H99, RPMI 1640, 37 °C (Fig. 4A)

Chain of Hsp90 (P46598 whole entry): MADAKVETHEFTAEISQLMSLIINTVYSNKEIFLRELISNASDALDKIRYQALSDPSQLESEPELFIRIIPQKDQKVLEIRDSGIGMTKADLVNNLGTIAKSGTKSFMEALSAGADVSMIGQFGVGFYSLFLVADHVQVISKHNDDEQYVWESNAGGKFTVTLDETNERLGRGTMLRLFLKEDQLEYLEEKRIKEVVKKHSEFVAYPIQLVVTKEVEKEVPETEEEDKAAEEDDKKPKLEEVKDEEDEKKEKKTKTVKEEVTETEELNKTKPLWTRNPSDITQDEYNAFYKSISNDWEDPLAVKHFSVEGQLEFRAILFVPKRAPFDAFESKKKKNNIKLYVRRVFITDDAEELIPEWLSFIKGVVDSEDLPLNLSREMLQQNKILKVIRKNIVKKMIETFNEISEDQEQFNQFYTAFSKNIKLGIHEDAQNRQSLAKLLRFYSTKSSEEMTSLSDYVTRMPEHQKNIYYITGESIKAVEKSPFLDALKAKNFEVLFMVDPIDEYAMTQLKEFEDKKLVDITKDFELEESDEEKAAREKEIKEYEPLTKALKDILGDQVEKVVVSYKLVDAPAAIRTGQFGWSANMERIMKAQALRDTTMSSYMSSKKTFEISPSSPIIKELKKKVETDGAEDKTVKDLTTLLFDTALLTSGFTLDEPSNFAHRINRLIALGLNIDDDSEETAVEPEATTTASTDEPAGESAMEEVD

For `Cn1nc(-c2ccc(OC(F)(F)F)cc2)cc1Nc1cc(O)cc(O)c1C(=O)N1Cc2ccccc2C1` [Compound 130, 4-(2,3-Dihydro-1H-isoindole-2-carbonyl)-5-((1-methyl-3-(4-(trifluoromethoxy)phenyl)-1H-pyrazol-5-yl)amino)benzene-1,3-diol], which “fungicidal activity in combination with fluconazole” value (shortened to “fungicidal activity in combination”) [1] is on record?
The value was “fungicidal”.

Which “fungicidal activity in combination” value [1] does the source give for `COc1ccc(Cn2ncc(C)c2Nc2cc(O)cc(O)c2C(=O)N2Cc3ccccc3C2)cc1` [Compound 41, 4-(2,3-Dihydro-1H-isoindole-2-carbonyl)-5-((1-((4-methoxyphenyl)methyl)-4-methyl-1H-pyrazol-5-yl)amino)benzene-1,3-diol] here?
Its value is “fungicidal activity”.

For `COc1ccc(Cn2nc(C)cc2Nc2cc(O)cc(O)c2C(=O)N(C)CC2CC2)cc1` [Compound 30, N-(Cyclopropylmethyl)-2,4-dihydroxy-6-((1-((4-methoxyphenyl)methyl)-3-methyl-1H-pyrazol-5-yl)amino)-N-methylbenzamide], which EC50 (Hsp90) is on record?
The EC50 was > 9 µM.

With `COc1ccc(Cn2nc(-c3ccccc3)cc2Nc2cc(O)cc(O)c2C(=O)N2Cc3ccccc3C2)cc1` [Compound 21, 4-(2,3-dihydro-1H-isoindole-2-carbonyl)-5-((1-((4-methoxyphenyl)methyl)-3-phenyl-1H-pyrazol-5-yl)amino)benzene-1,3-diol] as the compound, how does the “fungicidal activity in combination” value [1] read?
The value was “fungicidal activity”.

Which EC50 (Hsp90) does the source give for `CCN(CC)C(=O)c1c(O)cc(O)cc1Nc1cc(-c2ccccc2)nn1Cc1ccc(OC)cc1` [Compound 39, N,N-Diethyl-2,4-dihydroxy-6-((1-((4-methoxyphenyl)methyl)-3-phenyl-1H-pyrazol-5-yl)amino)benzamide] here?
The EC50 was > 10 µM.

With `COc1ccc(Cn2nc(-c3ccccc3)cc2Nc2cc(O)cc(O)c2C(=O)N(C)CC2CC2)cc1` [Compound 31, N-(Cyclopropylmethyl)-2,4-dihydroxy-6-((1-((4-methoxyphenyl)methyl)-3-phenyl-1H-pyrazol-5-yl)amino)-N-methylbenzamide] as the compound, how does the EC50 (Hsp90) read?
The EC50 was > 9 µM.

For `COc1ccc(CO\N=C2/C=C/C=C\[C@H]3O[C@@H]3C[C@@H](C)OC(=O)c3c(O)cc(O)cc3C2)cc1` [CMLD013075], which “binding selectivity for the C. albicans Hsp90 NBD compared to the human ortholog” value (C. albicans Hsp90 NBD) is on record?
Its value is > 25 fold.

With `COc1ccc(Cn2nc(C)cc2Nc2cc(O)cc(O)c2C(=O)N(C)Cc2ccccc2)cc1` [Compound 37, N-Benzyl-2,4-dihydroxy-6-((1-((4-methoxyphenyl)methyl)-3-methyl-1H-pyrazol-5-yl)amino)-N-methylbenzamide] as the compound, how does the EC50 (Hsp90) read?
The EC50 was > 6 µM.

With `Cc1cc(Nc2cc(O)cc(O)c2C(=O)N2Cc3ccccc3C2)n(Cc2ccccc2Cl)n1` [Compound 89, 5-((1-((2-Chlorophenyl)methyl)-3-methyl-1H-pyrazol-5-yl)amino)-4-(2,3-dihydro-1H-isoindole-2-carbonyl)benzene-1,3-diol] as the compound, how does the “fungicidal activity in combination” value [1] read?
Its value is “fungicidal activity”.

For `Cc1ccccc1-c1cc(Nc2cc(O)cc(O)c2C(=O)N2Cc3ccccc3C2)n(C)n1` [Compound 106, 4-(2,3-Dihydro-1H-isoindole-2-carbonyl)-5-((1-methyl-3-(2-methylphenyl)-1H-pyrazol-5-yl)amino)benzene-1,3-diol], which “concentration inhibiting growth of C. neoformans” value [2] is on record?
The value was “below 10 μM”.
